The source of these data is patent publication US20260137698A1, “CYCLIN-DEPENDENT KINASE 7 INHIBITORS” (JOINT STOCK COMPANY «BIOCAD», priority 2022, published 2026).

The term CC50 denotes the concentration that lowers cell viability or growth by half. Low readings indicate greater toxicity to the cells, high ones lower toxicity to the cells.

Data set [1] is described as follows: Passive membrane permeability through PAMPA artificial membrane, pH 7.4. The data set is classed as in vitro ADME. The note with it: pH 7.4, 10 μmol, 20 hours at room temperature, mean of multiple measurements, read-out: PAMPA passive permeability Pe. The method, then: Passive membrane permeability of the compounds described in the present invention was determined using the PAMPA (parallel artificial membrane permeability assay) model at pH 7.4.
We used a 96-well plate (Corning® BioCoat® Pre-coated PAMPA Plate System, order no. 353015), composed of acceptor and donor parts with cell membrane-modeling PVDF filter pre-impregnated with a lecithin-phospholipid bilayer. The substance (at a concentration of 10 μmol) in a 0.01 M phosphate buffer with pH 7.4 was introduced into a donor well of the plate, and pure buffer was introduced into an acceptor well; afterwards, the both parts were combined and incubated for 20 hours at room temperature so that the compound was redistributed between the two wells and the membrane. Verapamil (USP, USA, order no. 1711202) and propranolol (MCE LLC, USA, cat. no. HY-B0573/CS-2680) were used as control compounds with high and medium permeability. Samples were analyzed by reversed-phase HPLC with UV detection (Agilent 1260 chromatograph with UV detector) by determining their peak areas in the donor and acceptor wells.
Permeability (Pe, cm/s) and retention factor (R, %) in the lipid bilayer were calculated using the formula:
[formula] [formula] • Co is donor-well concentration of the substance at the initial moment of time t (μM); • CA (t) is acceptor-well concentration of the substance at time t (μM); • Vd is donor-well volume (0.3 ml); • Va is acceptor-well volume (0.15 ml).
[formula] • A is filter area (0.3 cm^2); • t is incubation time (72000 s);
For orientation: In PAMPA a lipid-coated filter parts donor from acceptor wells.

Data set [2] in a line: General cytotoxicity on primary differentiated HepaRG cells (72 h). The data set is classed as cell-based. The following applies: human, general toxicity, mean value from several measurements. The source says: General cytotoxicity of CDK7 inhibitors according to the present invention was investigated using primary differentiated HepaRG cells (Biopredic Int, order no. HPR101). A week before the measurement, the cells were thawed and maintained in Basal hepatic cell medium (Biopredic Int, order no. MIL700079) supplemented with HepaRG maintenance/metabolism medium supplement with antibiotics (Biopredic Int, order no. ADD620C). The medium in vials with cells was changed every 2-3 days. The night before the test, the cells were plated in wells of 96-well plates (Corning Inc., order no. 3599) at 25×10^3 cells in 100 μl of medium per well. The next day, test compounds were introduced into plate wells with cells, untitrated at a concentration ranging from 200 μM to 0.2 nM, and incubated for 72 hours. Cell viability was assessed as described above.

The target of another data set is CDK2/Cyclin A (Homo sapiens, UniProt P24941). Put plainly: Inhibition of CDK2/Cyclin A kinase activity (ADP-Glo). It counts as biochemical. The note with it: mean value from several measurements; read-out: IC50 CDK2/Cyclin A. On the procedure:
(§1) Measurements were carried out in a 5 μl reaction volume using a 384-well plate (Corning Inc., order no. 4513). The analyzed substances were titrated from 50 μM in increments of 4 at 11 concentration points in a normal strength kinase buffer A (Thermo Fisher Scientific Inc, cat. no. PV3189) supplemented with DTT (Sigma, orde. no. 646563-10X.5ML) and prepared with water (Panreac, order no. 701074). Kinase was diluted in an analogous buffer, mixed with test compounds in plate wells and preincubated for 10 minutes at 25° C. Following incubation, a mixture of reaction substrate (CDKtide (SignalChem, order no. C06-58) or Histone H1 (SignalChem, order no. H10-54N) or PDKtide (SignalChem, order no. P10-58) and ATP (SignalChem, order no. V915B) prepared on a normal strength kinase buffer A was added. 1% solution of dimethyl sulfoxide (DMSO) (Sigma-Aldrich, order no. D2438) in the reaction volume was used as a negative control. The final concentrations of all reaction components are shown in Table 5. The plate was centrifuged at 400 rcf (Eppendorf, 5804 R) for 1 minute and incubated for 40-60 minutes at 25° C. The amount of ATP consumed in the kinase reaction was then measured using the ADP-Glo™ detection system. Luminescence signal was measured using Spark 20M tablet multifunction reader (Tecan Group Ltd, Switzerland). IC50 value was calculated using Magellan 7.2 (Tecan Group Ltd, Switzerland) by approximating experimental points by four-parameter model with the optimization by Levenberg-Marquardt:
(§2) [formula] • where A is the upper asymptote; D is the lower asymptote; C is IC50, half-maximal inhibitory concentration of kinase, nM; B is the curvature (slope).
(ADP-Glo turns the ADP formed in a reaction into a luminescent signal.)

The target in another data set is CDK9/Cyclin K (Homo sapiens, UniProt P50750). In words: Inhibition of CDK9/Cyclin K kinase activity (ADP-Glo). The data set is classed as biochemical. The following applies: mean value from several measurements; read-out: IC50 CDK9/Cyclin K. The method, then:
as §1, §2

In another data set the target is CDK7/Cyclin H/MNAT1 (Homo sapiens, UniProt P50613). In words: Inhibition of CDK7/Cyclin H/MNAT1 kinase activity (ADP-Glo). The note with it: mean value from several measurements; read-out: IC50 CDK7/Cyclin H/MNAT. The data set is classed as biochemical. On the procedure: as §1, §2
Data set [3] relates to MDA-MB-468 (triple negative breast cancer). Put plainly: Antiproliferative assay on MDA-MB-468 cells (AlamarBlue, 96 h). It counts as cell-based. The note with it: Homo sapiens, mean value from several measurements. On the procedure: The antiproliferative activity of CDK7 inhibitors according to the present invention was evaluated in a cell test using continuous cell cultures: MDA-MB-468 (triple negative breast cancer, ATCC® HTB-132™) and NCl-H82 (small cell lung cancer, ATCC® HTB-175™) using a viable AlamarBlue dye (Thermo Fisher Scientific Inc, order no. DAL1100). The cells were grown in DMEM (PanEco, order no. C330π) and RPMI-1640 (PanEco, order no. C330π), respectively. The basal growth medium was enriched with L-glutamine at a concentration of 2 mM (PanEco, order no. Φ032) and 10% fetal bovine serum (Gibco, order no. 16140-071). The night before measurement, MDA-MB-468 adherent cells were detached from plastic with a solution of trypsin-EDTA (PanEco, order no. Π039π), the solution was then inactivated by a DMEM complete medium, centrifuged at 1000 RPM (Eppendorf, 5804 R), a suspension of cells was prepared in a DMEM complete medium, introduced into 96-well culture plates (Corning Inc, order no. 3599) at 8×10^3 cells in 100 μl of medium per well. The next day, test compounds were dissolved in DMSO and diluted with a DMEM complete medium to a final concentration ranging from 50 μM to 10 pM. Diluted compounds in a volume of 50 μl were introduced into the plate wells with cells in triplicates (the final concentration of DMSO was no more than 1%) and incubated at 37° C. in an incubator with 5% CO2 for 96 hours. NCl-H82 suspension cell line was prepared on the day of the analysis. 10×10^3 cells in 100 μl of an RPMI-1640 complete medium were added to each well of a 96-well plate. The procedure for sample dilution is as described above. Cells with test compounds were incubated at 37° C. in an incubator with 5% CO2 for 120 hours. Following incubation, […] of AlamarBlue reagent (Thermo Fisher Scientific Inc., order no. DAL1100) was added to the wells, the contents of the plates were stirred in an orbital shaker (Biosan, Latvia), then further incubated for 5.5-6 hours at 37° C. in an incubator with 5% CO2. The number of viable cells was detected using the Infinite M200Pro microplate spectrophotometer (Tecan Group Ltd, Switzerland) by way of measuring a fluorescent signal at an excitation wavelength (λEx) of 540 nm and an emission wavelength (λEm) of 590 nm.
IC50 value was calculated using the Magellan software (Tecan Group Ltd, Switzerland) by approximating experimental points by four-parameter model with the optimization by Levenberg-Marquardt: […]
(Resazurin is reduced to fluorescent resorufin, in cell work by metabolically active cells.)

CDK9/Cyclin K, sequence (P50750 whole entry): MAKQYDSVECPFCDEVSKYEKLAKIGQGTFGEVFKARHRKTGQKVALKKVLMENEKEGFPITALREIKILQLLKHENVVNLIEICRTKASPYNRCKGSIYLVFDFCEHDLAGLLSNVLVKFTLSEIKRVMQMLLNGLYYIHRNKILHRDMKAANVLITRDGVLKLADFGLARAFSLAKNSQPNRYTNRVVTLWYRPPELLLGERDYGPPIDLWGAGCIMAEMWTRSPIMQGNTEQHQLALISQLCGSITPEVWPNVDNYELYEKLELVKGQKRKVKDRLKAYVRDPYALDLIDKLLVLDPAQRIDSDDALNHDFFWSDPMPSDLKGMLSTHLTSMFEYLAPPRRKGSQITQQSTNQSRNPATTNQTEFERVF
CDK9/Cyclin K, sequence (O75909 whole entry partner): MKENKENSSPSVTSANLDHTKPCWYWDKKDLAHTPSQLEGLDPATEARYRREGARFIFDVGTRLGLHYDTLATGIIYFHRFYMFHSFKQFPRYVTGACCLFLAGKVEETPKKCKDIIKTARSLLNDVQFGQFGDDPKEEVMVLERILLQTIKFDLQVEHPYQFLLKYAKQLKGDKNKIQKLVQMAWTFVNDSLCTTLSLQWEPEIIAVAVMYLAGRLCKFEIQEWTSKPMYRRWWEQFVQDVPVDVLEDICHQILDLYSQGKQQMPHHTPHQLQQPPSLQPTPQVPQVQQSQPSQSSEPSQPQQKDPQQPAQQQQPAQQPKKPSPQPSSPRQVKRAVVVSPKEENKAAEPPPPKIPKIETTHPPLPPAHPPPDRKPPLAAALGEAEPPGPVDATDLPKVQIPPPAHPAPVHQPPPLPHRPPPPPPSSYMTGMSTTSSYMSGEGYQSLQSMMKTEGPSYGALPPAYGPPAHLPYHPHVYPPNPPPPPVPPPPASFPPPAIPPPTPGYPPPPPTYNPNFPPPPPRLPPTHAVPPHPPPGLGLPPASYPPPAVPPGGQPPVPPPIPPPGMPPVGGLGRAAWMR
CDK7/Cyclin H/MNAT1, sequence (P50613 whole entry): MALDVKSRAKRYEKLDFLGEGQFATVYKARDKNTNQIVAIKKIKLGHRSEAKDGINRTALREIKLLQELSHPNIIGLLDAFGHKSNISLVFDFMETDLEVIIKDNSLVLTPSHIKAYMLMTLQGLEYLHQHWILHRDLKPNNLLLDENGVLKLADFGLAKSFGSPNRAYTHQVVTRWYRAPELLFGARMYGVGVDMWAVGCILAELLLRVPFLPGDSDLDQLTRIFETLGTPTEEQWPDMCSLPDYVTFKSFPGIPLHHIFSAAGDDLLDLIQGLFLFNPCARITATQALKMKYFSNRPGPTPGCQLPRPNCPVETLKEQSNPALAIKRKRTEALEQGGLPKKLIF
CDK7/Cyclin H/MNAT1, sequence (P51946 whole entry partner): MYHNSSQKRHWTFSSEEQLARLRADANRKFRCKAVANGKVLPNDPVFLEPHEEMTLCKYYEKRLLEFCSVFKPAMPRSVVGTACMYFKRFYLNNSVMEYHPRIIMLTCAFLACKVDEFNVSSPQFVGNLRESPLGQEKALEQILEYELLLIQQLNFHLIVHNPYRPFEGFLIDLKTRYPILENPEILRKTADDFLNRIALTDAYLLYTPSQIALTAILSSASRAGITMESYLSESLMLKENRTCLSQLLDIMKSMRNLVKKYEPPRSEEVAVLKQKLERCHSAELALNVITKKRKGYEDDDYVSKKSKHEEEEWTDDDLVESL
CDK7/Cyclin H/MNAT1, sequence (P51948 whole entry partner): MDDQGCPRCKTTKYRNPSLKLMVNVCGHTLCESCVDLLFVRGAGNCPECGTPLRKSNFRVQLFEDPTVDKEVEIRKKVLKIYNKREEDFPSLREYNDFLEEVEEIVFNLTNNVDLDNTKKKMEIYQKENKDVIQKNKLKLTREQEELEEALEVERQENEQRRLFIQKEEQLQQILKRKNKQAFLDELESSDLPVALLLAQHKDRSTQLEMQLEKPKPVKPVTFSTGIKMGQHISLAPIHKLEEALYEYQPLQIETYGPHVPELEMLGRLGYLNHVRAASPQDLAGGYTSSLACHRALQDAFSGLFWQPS

On to `O=c1c2[nH]cc(-c3nc(N[C@H]4CCCNC4)ncc3C(F)(F)F)c2ccn1C1CCOCC1` [CDK7_1121], for which the Papp at 20 h, 10 μmol in data set [1] is under 1 ×10⁻⁶ cm/s. The CC50 at 72 h in data set [2] is over 2000 nM.

As for `Cc1ccc(P(C)(C)=O)c(Nc2nc(N[C@H]3CCCNC3)ncc2C(F)(F)F)c1` [CDK7_903, N4-[2-(dimethylphos-phoryl)-5-methylphenyl]-N2-[(3S)-piperidin-3-yl]-5-(trifluoromethyl) pyrimidine-2,4-diamine], the Papp at 20 h, 10 μmol in data set [1] was under 1 ×10⁻⁶ cm/s. In addition, the values for the IC50 at CDK2/Cyclin A, at CDK9/Cyclin K and on CDK7/Cyclin H/MNAT1 were over 200 nM, over 200 nM and 5 to 50 nM, respectively.

`Cc1ccc(Nc2nc(N[C@H]3CCCNC3)ncc2C(F)(F)F)c(P(C)(C)=O)c1` [CDK7_904, N4-[2-(dimethylphos-phoryl)-4-methylphenyl]-N2-[(3S)-piperidin-3-yl]-5-(trifluoromethyl) pyrimidine-2,4-diamine]: in data set [1], the Papp at 20 h, 10 μmol was under 1 ×10⁻⁶ cm/s. For the same compound, the IC50 in data set [3] is 100 to 1000 nM; on CDK2/Cyclin A, over 200 nM; on CDK9/Cyclin K it was 5 to 50 nM; on CDK7/Cyclin H/MNAT1, under 5 nM. In data set [2], this compound had a cytotoxic concentration (CC50) at 72 h of over 2000 nM.

Turning to `FC(F)(F)c1cnc(N[C@H]2CCCNC2)nc1-n1nnc2ccccc21` [CDK7_811, 4-(1H-1,2,3-benzotriazol-1-yl)-N-[(3S)-piperidin-3-yl]-5-(trifluoromethyl)py-rimidin-2-amine], the Papp at 20 h, 10 μmol in data set [1] was in the range of 5 to 10 ×10⁻⁶ cm/s. Moreover, the IC50 in data set [3] was 100 to 1000 nM; on CDK2/Cyclin A, over 200 nM; at CDK7/Cyclin H/MNAT1, 5 to 50 nM. In data set [2], this compound registered a CC50 at 72 h of 500 to 2000 nM.

With `O=C(Nc1nccs1)c1cc(-c2nc(N[C@H]3CCCNC3)ncc2C(F)(F)F)c[nH]1` [CDK7_834, 4-(2-{[(3S)-piperidin-3-yl]amino}-5-(trifluoromethyl)pyrimidin-4-yl)-1N-(1,3-thiazol-2-yl)-1H-pyrrole-2-carboxamide], the IC50 in data set [3] is 10 to 100 nM; at CDK2/Cyclin A, over 200 nM; at CDK9/Cyclin K, 5 to 50 nM; on CDK7/Cyclin H/MNAT1 it was 5 to 50 nM. In data set [2], this compound registered a CC50 at 72 h of 100 to 500 nM.

For the compound `O=C(NCC(F)(F)F)c1cc(-c2nc(N[C@H]3CCCNC3)ncc2C(F)(F)F)c[nH]1` [CDK7_847, 4-(2-{[(3S)-piperidin-3-yl]amino}-5-(trifluoromethyl)pyrimidin-4-yl)-N-(2,2,2-trifluoroethyl)-1H-pyrrole-2-carboxamide], the IC50 was 10 to 100 nM in data set [3], over 200 nM at CDK2/Cyclin A, 5 to 50 nM on CDK9/Cyclin K and 5 to 50 nM on CDK7/Cyclin H/MNAT1. The compound further had a CC50 at 72 h in data set [2] of 100 to 500 nM.

As for `CN(C)C(=O)c1nc(-c2nc(N[C@H]3CCCNC3)ncc2C(F)(F)F)c[nH]1` [CDK7_966, N,N-dimethyl-4-(2-{[(3S)-piperidin-3-yl]amino}-5-(trifluoromethyl)py-rimidin-4-yl)-1H-imidazole-2-carboxamide], the IC50 is 100 to 1000 nM in data set [3], over 200 nM on CDK2/Cyclin A, over 200 nM at CDK9/Cyclin K and 5 to 50 nM at CDK7/Cyclin H/MNAT1. Moreover, in data set [2], the CC50 at 72 h was over 2000 nM.

With `O=C(NC1CCOCC1)c1cc(-c2nc(N[C@H]3CCCNC3)ncc2C(F)(F)F)c[nH]1` [CDK7_850, N-(oxan-4-yl)-4-(2-{[(3S)-piperidin-3-yl]amino}-5-(trifluoromethyl)pyrimidin-4-yl)-1H-pyrrole-2-carboxamide], the IC50 in data set [3] is 100 to 1000 nM; on CDK2/Cyclin A, over 200 nM; on CDK9/Cyclin K it was 50 to 200 nM; on CDK7/Cyclin H/MNAT1, 5 to 50 nM. In data set [2], this compound yielded a cytotoxic concentration (CC50) at 72 h of over 2000 nM.

As for `CN1CCC(=O)c2c(-c3nc(N[C@H]4CCCNC4)ncc3C(F)(F)F)c[nH]c2C1=O` [CDK7_1021, 7-methyl-3-(2-{[(3S)-piperidin-3-yl]amino}-5-(trifluoromethyl)py-rimidin-4-yl)-1H,4H,5H,6H,7H, 8H-pyrrolo[2,3-c]azepine-4,8-dione], the Papp at 20 h, 10 μmol in data set [1] was under 1 ×10⁻⁶ cm/s. Also, the IC50 on CDK2/Cyclin A was 5 to 50 nM; at CDK9/Cyclin K it was over 200 nM; on CDK7/Cyclin H/MNAT1, 5 to 50 nM. In data set [2], this compound showed a CC50 at 72 h of over 2000 nM.

Turning to `CN(C(=O)c1cc(-c2nc(N[C@H]3CCCNC3)ncc2C(F)(F)F)c[nH]1)c1nccs1` [CDK7_1003, N-methyl-4-(2-{[(3S)-piperidin-3-yl]amino}-5-(trifluoromethyl)pyrimidin-4-yl)-N-(1,3-thiazol-2-yl)-1H-pyrrole-2-carboxamide], the IC50 is 100 to 1000 nM in data set [3], over 200 nM on CDK2/Cyclin A, 50 to 200 nM at CDK9/Cyclin K and 5 to 50 nM on CDK7/Cyclin H/MNAT1. Moreover, the 50% cytotoxic concentration (CC50) at 72 h in data set [2] was in the range of 500 to 2000 nM.

As to `CN(C(=O)c1cc(-c2nc(N[C@H]3CCCNC3)ncc2C(F)(F)F)c[nH]1)C1CC1` [CDK7_1001, N-cyclopropyl-N-methyl-4-(2-{[(3S)-piperidin-3-yl]amino}-5-(trifluoromethyl)pyrimidin-4-yl)-1H-pyrrole-2-carboxamide], the IC50 in data set [3] is 100 to 1000 nM; on CDK2/Cyclin A it was over 200 nM; at CDK9/Cyclin K, 5 to 50 nM; on CDK7/Cyclin H/MNAT1, under 5 nM. For the same compound, the CC50 at 72 h in data set [2] is 500 to 2000 nM.
